Results as given in patent publication US10278957B2, “Opioid agonist peptides and uses thereof” (Protagonist Therapeutics, Inc., priority 2017, dated 2019).
Numbered stars: 1 amine (or outer) side, 2 acyl side, 3 side chain; on linkers, the order of the positions; unused ones are H or OH. Bridge positions count the residues as written; N and C are the ends. Square brackets hold non-standard residues; d marks the D form. Peptide text beside a SMILES is read from it. I, II: the chains in the order shown. Bip = N[C@@H](Cc1ccc(-c2ccccc2)cc1)C(=O)O; Diglycolyl = O=C(COCC(=O)[*:2])[*:1]; Dmt = Cc1cc(O)cc(C)c1C[C@H](N)C(=O)O; β3hF = N[C@H](CC(=O)O)Cc1ccccc1; Sar = CNCC(=O)O

Tests used:
δ-opioid receptor (DOR) = biological target: T1, δ-opioid receptor (DOR) (Homo sapiens, UniProt P41143); test: DOR agonist cAMP assay (HitHunter cAMP, forskolin-stimulated); assay type: cell-based
T1 construct: host or cells: cAMP Hunter CHO-K1 OPRD1 Gαi cell line
T1 sequence (P41143 whole entry): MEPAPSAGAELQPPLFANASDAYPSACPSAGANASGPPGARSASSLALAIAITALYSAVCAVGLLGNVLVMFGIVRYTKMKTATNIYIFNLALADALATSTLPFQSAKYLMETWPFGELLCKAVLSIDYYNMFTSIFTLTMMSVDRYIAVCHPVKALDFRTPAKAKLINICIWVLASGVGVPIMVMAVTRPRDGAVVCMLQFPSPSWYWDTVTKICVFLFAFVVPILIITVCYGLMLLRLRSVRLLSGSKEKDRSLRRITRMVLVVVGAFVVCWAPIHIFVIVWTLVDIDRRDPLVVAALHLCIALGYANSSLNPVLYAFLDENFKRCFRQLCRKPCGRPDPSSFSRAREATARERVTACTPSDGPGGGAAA
Summary of the method: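 CHO-K1 Gαi cells expressing OPRM1 or OPRD1 were exposed 30 min at 37° C to 11-point threefold agonist dilutions, in duplicate, with 20 uM forskolin final. cAMP quantified by EFC chemiluminescent competitive immunoassay against cAMP standards. EC50 by four-parameter Hill nonlinear regression.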

[1] = SIF assay (stability in simulated intestinal fluid); assay type: in vitro ADME; conditions: for half-life at 20 μM: simulated intestinal fluid (SIF) with pancreatin, simulated intestinal fluid, pH 6.8, pancreatin, 37° C.
Experimental: SIF was prepared by adding 6.8 g of monobasic potassium phosphate and 10.0 g of pancreatin to 1.0 L of water. After dissolution, the pH was adjusted to 6.8 using NaOH. DMSO stocks (2 mM) were prepared for each of the opioid agonist peptides. Aliquots of the DMSO solutions were dosed into […], each containing 0.5 mL of SIF, which was pre-warmed to 37° C. The final opioid agonist peptide concentration was 20 μM. The vials were kept in a benchtop Thermomixer® for the duration of the experiment. At each timepoint (0, 5, 10, 20, 40, 60, or 360 minutes or 24 hours), 1.0 mL of acetonitrile containing 1% formic acid was added to one vial to terminate the reaction. Samples were stored at 4° C. until the end of the experiment. After the final timepoint was sampled, the tubes were mixed and then centrifuged at 3,000 rpm for 10 minutes. Aliquots of the supernatant were removed, diluted 1:1 into distilled water containing an internal standard, and analyzed by LCMS/MS. The percent of the opioid agonist peptide remaining at each timepoint was calculated based on the peak area response ratio of opioid agonist peptide to the internal standard. Time 0 was set to 100%, and all later timepoints were calculated relative to time 0. Half-lives were calculated by fitting to a first-order exponential decay equation using Graph pad.

μ-opioid receptor (MOR) = biological target: T2, μ-opioid receptor (MOR) (Homo sapiens, UniProt P35372); test: MOR agonist cAMP assay (HitHunter cAMP, forskolin-stimulated); assay type: cell-based
T2 construct: host or cells: cAMP Hunter CHO-K1 OPRM1 Gαi cell line
T2 sequence (P35372 whole entry): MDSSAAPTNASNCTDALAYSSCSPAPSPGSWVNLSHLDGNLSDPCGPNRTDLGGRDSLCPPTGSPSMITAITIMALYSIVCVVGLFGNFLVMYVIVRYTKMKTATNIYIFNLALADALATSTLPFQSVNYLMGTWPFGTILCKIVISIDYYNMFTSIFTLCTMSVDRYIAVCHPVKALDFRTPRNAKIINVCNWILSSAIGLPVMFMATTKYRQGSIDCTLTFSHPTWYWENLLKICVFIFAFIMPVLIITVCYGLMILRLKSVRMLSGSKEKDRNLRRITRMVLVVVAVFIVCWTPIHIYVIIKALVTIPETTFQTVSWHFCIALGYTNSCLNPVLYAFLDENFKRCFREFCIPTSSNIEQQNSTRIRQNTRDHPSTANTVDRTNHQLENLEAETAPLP
Experimental: The HitHunter® cAMP chemiluminescent assay kit (DiscoveRx, Cat# 90-0075 SM25) was used to detect cAMP production in cAMP Hunter™ Gαi cell lines over expressing either Human-ORPM1 (Discoverx, Catalog# 95-0107C2) or Human-ORPD1 (DiscoveRx, Catalog# 95-0108C2). Opioid agonist binding to the Gαi receptors inhibits the intracellular cAMP accumulation induced by forskolin, which activates adenylate cyclase and increases intracellular levels of cAMP.
Cells were cultured in media consisting of Ham's F-12 Nutrient Mix (Life Technologies, Catalog#31765035), 10% FBS (Life Technologies, Catalog# 16140-071), 4 mM GlutaMAX (Life Technologies, Catalog#35050-061), […] (Life Technologies), 100 ug/ml of Penn-Strep (Life Technologies) and 0.5 mg/ml Geneticin (Life Technologies, Catalog# 10131-027). The cultures were maintained at 37° C. under 5% CO2.
In preparation for cAMP assay, the cells were seeded at a density of 300,000 cells/ml in 100 ul of media/well in 96-well microplate. Wells that were designated for cAMP standards were left empty.
Opioid agonist serial dilutions were prepared in separate dilution plate (11-point series of 3× (3-fold) dilution) in Cell Assay buffer, including 3× forskolin for Gαi target. For Hunter CHO-K1 OPRM1 or CHO-K1 OPRD1 Gαi Cell Lines, the final forskolin concentration was 20 uM.
15 ul of each 3× opioid agonist serial dilution was added in the presence of forskolin in duplicate to the designated wells. The final concentration of each dilution was at 3× of the final screening concentration. The assay plate was incubated for 30 min, at 37° C. under 5% CO2.
Cellular cAMP concentrations were measured using the HitHunter cAMP Assay kit following the manufacturer's protocol. HitHunter cAMP assay is a gain-of-signal competitive immunoassay based on Enzyme Fragment Complementation (EFC) technology. The kit uses β-galactosidase (β-gal) enzyme split into Enzyme Donor (ED) and Enzyme Acceptor (EA). The cellular cAMP and ED-labelled cAMP compete for anti-cAMP antibody. […] When cellular cAMP level is high, it competes for the anti-cAMP antibody, thereby releasing ED-cAMP to complement with EA to produce a luminescent signal. The amount of signal is directly proportional to the amount of cAMP in cells and can be quantified using cAMP standards. The assay plates were read using a PerkinElmer Envision instrument to detect the chemiluminescence signal in each well (luminescence reader at 0.1 to 1 second/well). Data analysis was performed using Graphpad Prism 7.EC50 was calculated by nonlinear regression, using the four-parameter hill equation.

[2] = SGF assay (stability in simulated gastric fluid); assay type: in vitro ADME; conditions: pig, simulated gastric fluid (SGF) with porcine pepsin, pH 2, pepsin, 37° C.
Experimental: SGF was prepared by adding 20 mg NaCl, 32 mg porcine pepsin (MP Biochemicals, catalog 02102599), and 70 μl HCl to 10 ml water (final pH=2). Aliquots of SGF (0.5 ml each) were pre-warmed at 37° C. To start the reaction, 1 μl of opioid agonist peptide stock solution (10 mM in DMSO) was added to 0.5 ml SGF and thoroughly mixed such that the final peptide concentration was 20 μM. The reactions were incubated at 37° C. with gentle shaking.
At each timepoint (0, 15, 30, 60 min) 50 µl aliquots were removed and added to 200 ul of acetonitrile containing 0.1% formic acid to quench the reaction. Samples were stored at 4° C. until the end of the experiment and centrifuged at 10,000 rpm for 5 minutes. Aliquots of the supernatant were removed, diluted 1:1 into distilled water containing internal standard, and analyzed by LCMS/MS. The percent of the opioid agonist peptide remaining at each timepoint was calculated based on the peak area response ratio of the opioid agonist peptide to the internal standard. Time 0 was set to 100%, and all later timepoints were calculated relative to time 0. Half-lives were calculated by fitting to a first-order exponential decay equation using GraphPad.

| SMILES | EC50 (δ-opioid receptor (DOR)) [nM] | half-life at 20 μM [1] [h] | EC50 (μ-opioid receptor (MOR)) [nM] | half-life at 20 μM [2] [h] | SIF (min) ([1]; Table 4, SIF half-life) |
| --- | --- | --- | --- | --- | --- |
| C[C@@H](NC(=O)[C@@H](N)Cc1cccc(O)c1)C(=O)NCC(=O)N[C@H](CC(=O)N(C)CC(N)=O)Cc1ccccc1 [compound 56] | > 200 | 6 to 24 | – | – | – |
| Cc1cc(O)cc(C)c1C[C@H](N)C(=O)N[C@H](C)C(=O)NCC(=O)N[C@H](CC(=O)N(C)[C@H](C(=O)O)C(C)C)Cc1ccccc1 [compound 161] | < 1 | > 24 | < 1 | > 24 | – |
| C[C@@H](NC(=O)[C@H](N)Cc1ccc(O)cc1)C(=O)NCC(=O)N[C@H](CC(=O)N(C)CC(N)=O)Cc1ccccc1 [compound 53] | > 200 | 6 to 24 | – | – | – |
| C[C@@H](NC(=O)[C@@H](N)Cc1ccc(O)c(Cl)c1)C(=O)NCC(=O)N[C@H](CC(=O)N(C)CC(N)=O)Cc1ccccc1 [compound 55] | 10 to 50 | 6 to 24 | – | – | – |
| Cc1cc(O)cc(C)c1C[C@H](N)C(=O)N[C@H](C)C(=O)NCC(=O)N[C@H](CC(=O)N(C)[C@H](C(=O)O)c1ccccc1)Cc1ccccc1 [compound 157] | < 1 | > 24 | < 1 | – | – |
| CN[C@@H](Cc1ccc(O)cc1)C(=O)N[C@H](C)C(=O)NCC(=O)N[C@H](CC(=O)N(C)CC(N)=O)Cc1ccccc1 [compound 51] | > 200 | 6 to 24 | – | – | – |
| C[C@@H](NC(=O)C[C@@H](N)Cc1ccc(O)cc1)C(=O)NCC(=O)N[C@H](CC(=O)N(C)CC(N)=O)Cc1ccccc1 [compound 50] | > 200 | 6 to 24 | – | – | – |
| Cc1cc(O)cc(C)c1C[C@H](N)C(=O)N[C@H](C)C(=O)NCC(=O)N[C@H](CC(=O)N(CCCOC(C)C)CC(N)=O)Cc1ccccc1 [compound 117] | < 1 | > 24 | – | > 24 | – |
| Cc1cc(O)cc(C)c1C[C@H](N)C(=O)N[C@H](C)C(=O)NCC(=O)N[C@H](CC(=O)N(C)[C@@H](CC(C)C)C(=O)O)Cc1ccccc1 [compound 155] | – | > 24 | < 1 | > 24 | – |
| Cc1cc(O)cc(C)c1C[C@H](N)C(=O)N[C@H](C)C(=O)N[C@@H](C)C(=O)N[C@H](CC(=O)N(C)CC(N)=O)Cc1ccccc1 [compound 66] (H-[Dmt][dA]A[β3hF][Sar]-NH2) | – | > 24 | – | 0.167 to 6 | – |
| Cc1cc(C(N)=O)cc(C)c1C[C@H](N)C(=O)N[C@H](C)C(=O)NCC(=O)N[C@H](CC(=O)N(C)CC(N)=O)Cc1ccccc1 [Seq. ID 70, H-Phe(2,6-dimethyl-4-CONH2)-a-G-bhF-Sar-NH2] | – | – | – | – | **** (for SIF half-life values, **** indicates >1290) |
| C[C@@H](NC(=O)[C@@H](N)Cc1ccc(O)c(C(C)(C)C)c1)C(=O)NCC(=O)N[C@H](CC(=O)N(C)CC(N)=O)Cc1ccccc1 [compound 52] | > 200 | 6 to 24 | – | – | – |
| C[C@@H](NC(=O)[C@@H](N)Cc1ccc(O)c(O)c1)C(=O)NCC(=O)N[C@H](CC(=O)N(C)CC(N)=O)Cc1ccccc1 [compound 58] | – | 6 to 24 | – | – | – |
| Cc1cc(O)cc(C)c1C[C@H](N)C(=O)N[C@H](C)C(=O)NCC(=O)N[C@H](CC(=O)N(C)CC(=O)O)Cc1ccccc1 [compound 87] | < 1 | > 24 | – | 6 to 24 | – |
| CCCC[C@@H](C(=O)O)N(C)C(=O)C[C@H](Cc1ccccc1)NC(=O)CNC(=O)[C@@H](C)NC(=O)[C@@H](N)Cc1c(C)cc(O)cc1C [compound 159] | – | > 24 | < 1 | > 24 | – |
| Cc1cc(O)cc(C)c1C[C@H](N)C(=O)N[C@H](C)C(=O)NCCC(=O)N[C@H](CC(=O)N(C)CC(N)=O)Cc1ccccc1 [compound 73] | 50 to 200 | > 24 | – | 0.167 to 6 | – |
| Cc1cc(O)cc(C)c1C[C@H](N)C(=O)N[C@H](C)C(=O)NCC(=O)N[C@H](CC(=O)NCC(N)=O)Cc1ccccc1 [compound 112] | < 1 | > 24 | – | > 24 | – |
| C[C@@H](NC(=O)[C@@H](N)CCc1ccc(O)cc1)C(=O)NCC(=O)N[C@H](CC(=O)N(C)CC(N)=O)Cc1ccccc1 [compound 54] | > 200 | 6 to 24 | – | – | – |
| Cc1cc(O)cc(C)c1C[C@H](N)C(=O)N[C@H](C)C(=O)NCC(=O)N[C@H](CC(=O)N(CCC(C)C)CC(N)=O)Cc1ccccc1 [compound 116] | < 1 | > 24 | – | > 24 | – |
| C[C@@H](NC(=O)[C@@H](N)Cc1ccc(O)c(F)c1)C(=O)NCC(=O)N[C@H](CC(=O)N(C)CC(N)=O)Cc1ccccc1 [compound 57] | 1 to 10 | 6 to 24 | – | > 24 | – |
| Cc1cc(C(N)=O)cc(C)c1C[C@H](N)C(=O)N[C@H](C)C(=O)NCC(=O)N[C@H](CC(=O)N(C)[C@@H](Cc1ccccc1)C(=O)O)Cc1ccccc1 [compound 100] | 1 to 10 | – | 1 to 10 | – | – |
| Cc1cc(O)cc(C)c1C[C@H](N)C(=O)N[C@H](CCCNC(=N)N)C(=O)N[C@@H](Cc1ccccc1)C(=O)N(C)[C@@H](CCCCN)C(N)=O [compound 5] | > 200 | – | < 1 | – | – |
| Cc1cc(O)cc(C)c1C[C@H](N)C(=O)N[C@H](C)C(=O)NCC(=O)N[C@H](CC(=O)N(C)CC(=O)N[C@H](CCCCNC(=O)COCC(=O)NCCCC[C@@H](NC(=O)CN(C)C(=O)C[C@H](Cc1ccccc1)NC(=O)CNC(=O)[C@@H](C)NC(=O)[C@@H](N)Cc1c(C)cc(O)cc1C)C(N)=O)C(N)=O)Cc1ccccc1 [compound 271] (I: H-[Dmt][dA]G[β3hF][Sar][dK]-NH2 / II: H-[Dmt][dA]G[β3hF][Sar][dK]-NH2; linker I:6-II:6 via Diglycolyl) | 1 to 10 | – | 1 to 10 | – | – |
| Cc1cc(O)cc(C)c1C[C@H](N)C(=O)N[C@H](CCC(=O)O)C(=O)NCC(=O)N[C@H](CC(=O)N(C)[C@@H](C)C(=O)O)Cc1ccccc1 [compound 185] | < 1 | – | 1 to 10 | – | – |
| Cc1cc(O)cc(C)c1C[C@H](N)C(=O)N[C@H](CCCNC(=N)N)C(=O)N[C@@H](Cc1ccc(-c2ccccc2)cc1)C(=O)N[C@@H](CCCCN)C(N)=O [compound 3] (H-[Dmt][dR][Bip]K-NH2) | > 200 | – | 50 to 200 | – | – |
